Measurements as given in patent US10280160B2, “Phthalazinone compounds and methods for the treatment of cystic fibrosis” (FLATLEY DISCOVERY LAB, LLC, priority 2013, dated 2019).

The compounds below were run against human F508del CFTR (Homo sapiens (Human), UniProt P13569, DEL508-508) (assay: CFTR-YFP High Throughput Assay (YFP halide flux, FRT cells)). Settings: EMax normalized to the positive control; FRT cells expressing human F508del CFTR and YFP; read-out: % Efficacy.
human F508del CFTR, sequence (P13569 other isoform, or with tags, fused parts or gaps del F508-F508): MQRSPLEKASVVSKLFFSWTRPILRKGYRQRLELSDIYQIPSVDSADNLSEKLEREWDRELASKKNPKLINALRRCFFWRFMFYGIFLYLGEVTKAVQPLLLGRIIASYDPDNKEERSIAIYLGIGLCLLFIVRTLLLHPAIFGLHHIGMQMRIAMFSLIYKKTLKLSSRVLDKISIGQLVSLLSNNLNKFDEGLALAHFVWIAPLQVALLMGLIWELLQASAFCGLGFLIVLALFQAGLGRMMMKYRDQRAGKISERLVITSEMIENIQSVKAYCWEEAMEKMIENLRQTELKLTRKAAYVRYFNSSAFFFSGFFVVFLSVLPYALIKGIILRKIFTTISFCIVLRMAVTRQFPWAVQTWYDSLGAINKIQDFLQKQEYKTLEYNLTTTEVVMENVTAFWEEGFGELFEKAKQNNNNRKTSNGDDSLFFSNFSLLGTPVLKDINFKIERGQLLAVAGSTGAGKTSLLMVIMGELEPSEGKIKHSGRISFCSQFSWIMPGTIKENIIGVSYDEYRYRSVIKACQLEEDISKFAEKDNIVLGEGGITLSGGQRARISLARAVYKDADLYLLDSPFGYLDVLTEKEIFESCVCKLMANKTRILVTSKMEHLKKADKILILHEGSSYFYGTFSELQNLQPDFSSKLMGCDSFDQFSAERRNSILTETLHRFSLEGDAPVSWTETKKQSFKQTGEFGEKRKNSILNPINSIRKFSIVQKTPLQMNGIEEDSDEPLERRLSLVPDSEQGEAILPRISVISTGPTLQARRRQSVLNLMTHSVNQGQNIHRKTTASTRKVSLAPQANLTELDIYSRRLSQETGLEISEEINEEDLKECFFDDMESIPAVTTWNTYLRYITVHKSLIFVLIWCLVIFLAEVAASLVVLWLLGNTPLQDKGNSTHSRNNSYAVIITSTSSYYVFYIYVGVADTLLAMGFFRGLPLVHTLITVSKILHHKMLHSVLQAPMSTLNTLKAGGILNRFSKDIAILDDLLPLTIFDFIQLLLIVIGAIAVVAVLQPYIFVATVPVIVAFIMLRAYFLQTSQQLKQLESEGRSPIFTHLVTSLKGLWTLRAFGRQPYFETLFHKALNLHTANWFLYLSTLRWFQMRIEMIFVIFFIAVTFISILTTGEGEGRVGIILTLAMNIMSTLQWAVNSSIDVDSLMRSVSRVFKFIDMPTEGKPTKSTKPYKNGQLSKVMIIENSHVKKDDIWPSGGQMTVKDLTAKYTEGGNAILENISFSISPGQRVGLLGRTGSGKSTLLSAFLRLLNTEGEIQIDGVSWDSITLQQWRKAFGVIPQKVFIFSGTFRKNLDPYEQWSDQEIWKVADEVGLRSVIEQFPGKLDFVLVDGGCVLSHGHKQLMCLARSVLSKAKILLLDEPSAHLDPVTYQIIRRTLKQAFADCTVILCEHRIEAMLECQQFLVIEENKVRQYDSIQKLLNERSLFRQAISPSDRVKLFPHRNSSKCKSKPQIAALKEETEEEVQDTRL
Format: cell-based
Procedure: Assays for Detecting and Measuring the Effect of Compounds on F508del-CFTR Channels CFTR-YFP Assay-CFTR Corrector Protocol:
This protocol is designed to selectively screen small molecule compounds for F508del CFTR corrector activities in the YFP (yellow fluorescent protein) flux assay. In this protocol, the cells are incubated with testing compounds for 24 hours, washed with PBS, stimulated with forskolin and a standard potentiator, and fluorescence in each plate well is measured kinetically read on a 384-well plate reader, such as the Hamamatsu FDSS-6000.
YFP fluorescence intensity values are acquired at high speed before and after iodide buffer is injected to the assay cells. Iodide enters the cells via active CFTR channels in the plasma membrane, and quenches the YFP fluorescence. The rate of fluorescence quenching is proportionate to the total CFTR activity in the cell membrane. F508del CFTR correctors increase the number of CFTR molecules in the testing cell plasma membrane, and thereby accelerate YFP quenching.
This method was initially developed for bench top plate readers (Galietta, J, Jayaraman, S and Verkman, A S. Cell-based assay for high-throughput quantitative screening of CFTR chloride transport agonists. Am. J. Physiol. Cell Physiol. (2001), 281: C173), and was adapted to the HTS format (Sui J, Cotard S, Andersen J, Zhu P, Staunton J, Lee M, Lin S. Optimization of a Yellow fluorescent protein-based iodide influx high-throughput screening assay for cystic fibrosis transmembrane conductance regulator (CFTR) modulators. Assay Drug Dev Technol. (2010), 8: 656-668).
Fisher Rat Thyroid (FRT) cells stably expressing both human F508del CFTR and a halide-sensitive yellow fluorescent protein (YFP-H148Q/I152L 25,22) (Galietta et al. Am. J. Physiol Cell Physiol 281(5), C1734, 2001) were cultured on plastic surface in Coon's modified Ham's F12 medium supplemented with FBS 10%, L-glutamine 2 mM, penicillin 100 U/ml, and streptomycin 100 μg/ml. G418 (0.75-1.0 mg/ml) and zeocin (3.2 ug/ml) were used for selection of FRT cells expressing F508del CFTR and YFP. For primary screening, FRT cells were plated into 384-well black wall, transparent bottom microtiter plates (Costar; Corning Inc.) at a cell density of 20,000-40,000 per well. Test compound was applied to the cells at varying concentrations ranging from 2 nM-40 μM in either a 2-fold or 3-fold dilution series. Cells were incubated in a cell culture incubator at 37° C. with 5% CO2 for 24-26 h. Assay plates were washed with DPBS media (Thermo, cat # SH30028.02) to remove unbound cells and compound. Stimulation media (25 μL) containing 20 μM Forskolin & 30 μM P3 [6-(Ethyl-phenyl-sulfonyl)-4-oxo-1,4-dihydro-quinoline-3-carboxylic acid 2-methoxy-benzylamide] in Hams F-12 coon's modified media was added to the plate wells and incubated at room temperature for 60-120 min. 25 μL of HEPES-PBS-I buffer (10 mM HEPES, 1 mM MgCl2, 3 mM KCl, 1 mM CaCl2, 150 mM NaI) was then added and fluorescence quench curves (Excitation 500 nm/Emission 540 nm; exposure 136 ms) were immediately recorded on an FDSS-6000 plate reader (Hamamatsu). Quench rates were derived from least squares fitting of the data as described by Sui et al (2010).
CFTR-YFP Assay-CFTR Potentiator Protocol:
This protocol is designed to selectively screen small molecule compounds for F508del CFTR potentiator activities in the YFP (yellow fluorescent protein) flux assay. Such compounds act acutely to stimulate CFTR already expressed on the membrane surface. In this protocol, the cells are incubated at 27° C. for 24 hours to homogeneously boost F508del CFTR expression in the cell membrane (low temperature correction), washed with PBS, treated with test compound, and CFTR activity is stimulated with forskolin for 1-2 hr. Measurement of ion flux is initiated by addition of iodide-containing buffer, and YFP quenching is kinetically recorded using a 384-well plate reader, such as the Hamamatsu FDSS-6000. […]
An Emax greater than 80% was found for Cc1nc2ccc(N(C)C(=O)Cn3nc(-c4cccc(Cl)c4)c4ccc(OC(C)C)cc4c3=O)cc2o1 [Example 25, 2-(4-(3-chlorophenyl)-7-isopropoxy-1-oxophthalazin-2(1H)-yl)-N-methyl-N-(2-methylbenzo[d]oxazol-6-yl)acetamide] in this work.
An Emax greater than 80% was found for Cc1nc2ccc(N(C)C(=O)Cn3nc(-c4cccc(Cl)c4)c4ccc(OC5CCCCC5)cc4c3=O)cc2o1 [Example 26, 2-(4-(3-chlorophenyl)-7-(cyclohexyloxy)-1-oxophthalazin-2(1H)-yl)-N-methyl-N-(2-methylbenzo[d]oxazol-6-yl)acetamide] in this work.
An Emax greater than 80% was found for Cc1nc2ccc(N(C)C(=O)Cn3nc(-c4cccc(F)c4)c4ccc(OC5CCOCC5)cc4c3=O)cc2o1 [Example 27, 2-(4-(3-fluorophenyl)-1-oxo-7-((tetrahydro-2H-pyran-4-yl)oxy)phthalazin-2(1H)-yl)-N-methyl-N-(2-methylbenzo[d]oxazol-6-yl)acetamide] in this work.
An Emax greater than 80% was found for Cc1nc2ccc(N(C)C(=O)Cn3nc(-c4cccc(F)c4)c4ccc(OC5CCCCC5)cc4c3=O)cc2o1 [Example 28, 2-(7-(cyclohexyloxy)-4-(3-fluorophenyl)-1-oxophthalazin-2(1H)-yl)-N-methyl-N-(2-methylbenzo[d]oxazol-6-yl)acetamide] in this work.
An Emax greater than 80% was found for Cc1nc2ccc(N(C)C(=O)Cn3nc(-c4cccc(Cl)c4)c4ccc(OC5CCOCC5)cc4c3=O)cc2o1 [Example 29, 2-(4-(3-chlorophenyl)-1-oxo-7-((tetrahydro-2H-pyran-4-yl)oxy)phthalazin-2(1H)-yl)-N-methyl-N-(2-methylbenzo[d]oxazol-6-yl)acetamide] in this work.
An Emax of 30 to 80% was found for CCOc1cc2c(=O)n(CC(=O)N(C)c3ccc4nc(C)oc4c3)nc(-c3cccc(F)c3)c2cc1Cl [Example 30] in this work.
An Emax greater than 80% was found for CCOc1cc2c(=O)n(CC(=O)N(C)c3ccc4nc(C)oc4c3)nc(-c3cccc(Cl)c3)c2cc1Cl [Example 31, 2-(6-chloro-4-(3-chlorophenyl)-7-ethoxy-1-oxophthalazin-2(1H)-yl)-N-methyl-N-(2-methylbenzo[d]oxazol-6-yl)acetamide] in this work.
